{"source": "patent US7951775B2", "about": "“Methods and pharmaceutical compositions for GnRH-I and GnRH-II modulation of T-cell activity, adhesion, migration and extravasation” (priority 2001, dated 2011)", "key": {"[1]": {"tested_on": "normal human T-cells", "test": "Quantitative RT-PCR of 67 kDa laminin receptor mRNA in T-cells", "type": "cell-based"}, "[2]": {"tested_on": "normal human T-cells", "test": "Double immunofluorescence staining (FACS) for surface 67 kDa laminin receptor and TCR", "type": "cell-based", "protocol": "Normal human T-cells, isolated from fresh peripheral blood lymphocytes, or EL-4 T-lymphocyte cells were subjected to double immunofluorescence staining, using a mouse monoclonal anti-67 kDa LR antibody (100 μl of 1:20 dilution per 1×10^6 cells/tube; 30 minutes on ice), or normal mouse sera for control. The cells were then stained with an FITC-conjugated goat anti-mouse IgG (100 μl of 1:100 dilution), and PE-conjugated mouse anti-human TCR αβ mAb (2 μl of stock). Cells that were stained only with the second and third antibodies served as additional negative controls. Fluorescence profiles were recorded in a FACSORT. To determine whether GnRH-II and GnRH-I trigger not only the gene transcription but also the surface expression of the 67 kDa LR, normal human T-cells were treated with either GnRH-II or GnRH-I for 18-66 h and subjected to double immunofluorescence staining using a monoclonal antibody (mAb) that is specific for the 67 kDa LR, and a phycoerythrin (PE)-conjugated anti-TCRαβ mAb (to confirm the T-cell origin of the cells). FIGS. 2A-2C show the staining for the untreated, GnRH-I treated and GnRH-II treated T-cells, respectively. The FACS profiles can be interpreted by division according to four categories: 1. Negative staining for both mAbs (double negative, lower left quadrant); 2. Single positive staining only with the anti-LR mAb (lower right quadrant), 3. Single positive staining only with the anti-TCR mAb (upper left quadrant); 4. Double positive staining with both mAbs (upper right quadrant). […] In different experiments, each using freshly isolated T-cells from a different human donor, both GnRH II and GnRH I repeatedly elevated the laminin receptor expression level, but the magnitude of elevation varied within a range of 6-40%. Such variations between T-cell populations originating from different donors are often observed in respect to various T-cell features and functions."}}, "note": "Where a SMILES comes first, the peptide text is derived from it. [ ]: non-standard residue; d: D form. dPhe(4-Cl) = N[C@H](Cc1ccc(Cl)cc1)C(=O)O; d2Nal = N[C@H](Cc1ccc2ccccc2c1)C(=O)O; dCit = NC(=O)NCCC[C@@H](N)C(=O)O; d3Pal = N[C@H](Cc1cccnc1)C(=O)O", "data": [{"smiles": "CC(=O)N[C@H](Cc1ccc2ccccc2c1)C(=O)N[C@H](Cc1ccc(Cl)cc1)C(=O)N[C@H](Cc1cccnc1)C(=O)N[C@@H](CO)C(=O)N[C@@H](Cc1ccc(O)cc1)C(=O)N[C@H](CCCNC(N)=O)C(=O)N[C@@H](CC(C)C)C(=O)N[C@@H](CCCNC(=N)N)C(=O)N1CCC[C@H]1C(=O)N[C@H](C)C(N)=O", "note": "[Cetrorelix, reference compound] (Ac-[d2Nal][dPhe(4-Cl)][d3Pal]SY[dCit]LRP[dA]-NH2)", "values": [{"measurement": "block of GnRH-I induced upregulation in gene expression of the 67 kDa LR", "setting": "[1]; 100 nM Cetrorelix + 10 nM GnRH-I (FIG. 2D)", "result": "blocked"}, {"measurement": "block of GnRH-II effect on gene expression of the 67 kDa LR", "setting": "[1]; 100 nM Cetrorelix + 10 nM GnRH-II (FIG. 2D)", "result": "did not block"}, {"measurement": "block of GnRH-I induced upregulation in surface expression of the 67 kDa LR", "setting": "[2]; 100 nM Cetrorelix + 10 nM GnRH-I (FIG. 2E)", "result": "blocked"}, {"measurement": "block of GnRH-II effect on surface expression of the 67 kDa LR", "setting": "[2]; 100 nM Cetrorelix + 10 nM GnRH-II (FIG. 2E)", "result": "did not block"}]}]}
